Laboratory results reported in EP4741390A1, “BIARYL RING COMPOUND, INTERMEDIATE THEREOF, PREPARATION METHOD THEREFOR AND USE THEREOF” (Hangzhou Synrx Therapeutics Biomedical Technology Co., Ltd., priority 2023, dated 2025).
Like-named read-outs stand apart in the source and are kept apart here.

Key:
[1] = target: helicase domain of the Pol θ protein (Homo sapiens, UniProt O75417); type: biochemical
Description: Biochemical Activity Assay (ADP Glo Assay) of Pol θ Inhibitor
The specific assay method was as follows: • 1) The helicase domain of the Pol θ protein was purified by an insect system, to obtain the protein with a purity of >90%. ssDNA (5'-[sequence]-3', Hangzhou Yocon Biotechnology Co., Ltd.) was ordered as the substrate for the Pol θ protein; and a reaction buffer containing 10 mM DTT (Dithiothreitol), 20 mM MgCl2 and Tris-HCl pH 7.5 was prepared. • 2) The 2x ssDNA-Pol θ premix was prepared; the reaction was conducted in a 384-well plate; a control group with only buffer is set, and the premix was added to the rest of the groups.

[2] = tested on: DLD1 BRCA2-/- cells; assay: Cell viability assay (CTG assay), DLD1 BRCA2-/- cells; type: cell-based; settings: Homo sapiens, DLD-1, 240 h; CellTiter Glo, read on Day 10, initial concentration 30 µM
Description: (§1) 2. Cell Viability Assay of Pol θ Inhibitor
(§2) The cell viability assay, i.e., the commonly used CTG assay, was conducted for the efficacy of the inhibitor in vitro using the CellTiter Glo reagent (Promega, G7573).

[3] = tested on: DLD1 wild type; assay: Cell viability assay (CTG assay), DLD1 wild type cells; type: cell-based; settings: Homo sapiens, DLD-1, 240 h; CellTiter Glo, read on Day 10, initial concentration 30 µM
Description: as §1, §2

[4] = ATPase activity, ADP-Glo, ssDNA substrate, 60 min at room temperature, initial concentration 10 µM, read-out: Biochemical experiment IC50

Sequence of helicase domain of the Pol θ protein (O75417 102-554 limits assumed): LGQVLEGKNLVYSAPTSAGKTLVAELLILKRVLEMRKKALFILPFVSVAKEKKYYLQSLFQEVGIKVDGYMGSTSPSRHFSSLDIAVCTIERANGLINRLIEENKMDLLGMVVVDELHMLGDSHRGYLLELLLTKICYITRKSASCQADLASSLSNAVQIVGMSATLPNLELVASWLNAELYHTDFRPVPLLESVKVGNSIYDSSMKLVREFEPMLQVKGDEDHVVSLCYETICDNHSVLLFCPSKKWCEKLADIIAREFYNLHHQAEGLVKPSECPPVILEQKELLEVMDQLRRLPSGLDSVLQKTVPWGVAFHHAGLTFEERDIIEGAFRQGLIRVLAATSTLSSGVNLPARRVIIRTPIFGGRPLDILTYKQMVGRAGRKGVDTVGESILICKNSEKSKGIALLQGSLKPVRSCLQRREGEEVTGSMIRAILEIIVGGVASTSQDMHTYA

Row | SMILES | IC50 [1] | IC50 [2] | IC50 [3] | IC50 [1, 4]
1 | COc1cnc(C(F)F)cc1-c1cc(-n2cccc(F)c2=O)ncc1C(=O)Nc1nc(-c2ccc(Cl)cc2)ns1 [Example 23] | 170 nM | 185 nM | > 50000 nM | –
2 | COc1cnc(C(F)F)cc1-c1cc(-n2cccc(F)c2=O)ncc1C(=O)Nc1nc(N2CCOCC2)ns1 [Example 24] | 20.3 nM | 15.3 nM | > 5000 nM | –
3 | COc1cnc(C(F)F)cc1-c1cc(-n2cccc(F)c2=O)ncc1C(=O)Nc1nc(N2CC3(COC3)C2)ns1 [Example 25, N-(3-(2-oxa-6-azaspiro[3.3]heptan-6-yl)-1,2,4-thiadiazol-5-yl)-2"-(difluoromethyl)-3-fluoro-5"-methoxy-2-oxo-2H-[1,2':4',4"-bipyridin]-5'-carboxamide] | 42.3 nM | 242 nM | > 5000 nM | –
4 | COc1cnc(Cl)cc1-c1cc(-n2cccc(F)c2=O)ncc1C(=O)Nc1nc(-c2c(C)cnn2C)ns1 [Example 26, 2"-chloro-N-(3-(1,4-dimethyl-1H-pyrazol-5-yl)-1,2,4-thiadiazol-5-yl)-3-fluoro-5"-methoxy-2-oxo-2H-[1,2':4',4"-terpyridin]-5'-carboxamide] | – | 0.82 nM | > 5000 nM | 2.29 nM
5 | COc1cnc(C(F)F)cc1-c1cc(-n2cccc(F)c2=O)ncc1C(=O)Nc1nc(N2CC3CC3C2)ns1 (stereo not drawn) [Example 28, N-(3-(3-azabicyclo[3,1,0]hex-3-yl)-1,2,4-thiadiazol-5-yl)-2"-(difluoromethyl)-3-fluoro-5"-methoxy-2-oxo-2H-[1,2':4',4"-terpyridin]-5'-carboxamide] | – | 24.2 nM | > 5000 nM | 11 nM
6 | COc1cnc(C(F)F)cc1-c1cc(-n2cccc(F)c2=O)ncc1C(=O)Nc1nc(-c2c(C)ncn2C)ns1 [Example 32, 2"-(difluoromethyl)-N-(3-(1,4-dimethyl-1H-imidazol-5-yl)-1,2,4-thiadiazol-5-yl)-3-fluoro-5"-methoxy-2-oxo-2H-[1,2':4',4"-terpyridin]-5'-carboxamide] | – | 13.1 nM | > 5000 nM | 6.11 nM
7 | COc1cnc(C(F)F)cc1-c1cc(-n2cccc(F)c2=O)ncc1C(=O)Nc1nc(C2CCC2)ns1 [Example 33, N-(3-cyclobutyl-1,2,4-thiadiazol-5-yl)-2"-(difluoromethyl)-3-fluoro-5"-methoxy-2-oxo-2H-[1,2":4'4"-bipyridin]-5'-carboxamide] | 4.11 nM | 8.57 nM | > 5000 nM | –
